Assay results reported in PMC12613816, “Discovery of Novel Isoxazole-Based Small-Molecule Toll-Like Receptor 8 Antagonists” (Journal of Medicinal Chemistry, 2025).

Molecular target: T1, TLR8 (Homo sapiens, UniProt Q9NR97)
T1 sequence (Q9NR97 27-1041): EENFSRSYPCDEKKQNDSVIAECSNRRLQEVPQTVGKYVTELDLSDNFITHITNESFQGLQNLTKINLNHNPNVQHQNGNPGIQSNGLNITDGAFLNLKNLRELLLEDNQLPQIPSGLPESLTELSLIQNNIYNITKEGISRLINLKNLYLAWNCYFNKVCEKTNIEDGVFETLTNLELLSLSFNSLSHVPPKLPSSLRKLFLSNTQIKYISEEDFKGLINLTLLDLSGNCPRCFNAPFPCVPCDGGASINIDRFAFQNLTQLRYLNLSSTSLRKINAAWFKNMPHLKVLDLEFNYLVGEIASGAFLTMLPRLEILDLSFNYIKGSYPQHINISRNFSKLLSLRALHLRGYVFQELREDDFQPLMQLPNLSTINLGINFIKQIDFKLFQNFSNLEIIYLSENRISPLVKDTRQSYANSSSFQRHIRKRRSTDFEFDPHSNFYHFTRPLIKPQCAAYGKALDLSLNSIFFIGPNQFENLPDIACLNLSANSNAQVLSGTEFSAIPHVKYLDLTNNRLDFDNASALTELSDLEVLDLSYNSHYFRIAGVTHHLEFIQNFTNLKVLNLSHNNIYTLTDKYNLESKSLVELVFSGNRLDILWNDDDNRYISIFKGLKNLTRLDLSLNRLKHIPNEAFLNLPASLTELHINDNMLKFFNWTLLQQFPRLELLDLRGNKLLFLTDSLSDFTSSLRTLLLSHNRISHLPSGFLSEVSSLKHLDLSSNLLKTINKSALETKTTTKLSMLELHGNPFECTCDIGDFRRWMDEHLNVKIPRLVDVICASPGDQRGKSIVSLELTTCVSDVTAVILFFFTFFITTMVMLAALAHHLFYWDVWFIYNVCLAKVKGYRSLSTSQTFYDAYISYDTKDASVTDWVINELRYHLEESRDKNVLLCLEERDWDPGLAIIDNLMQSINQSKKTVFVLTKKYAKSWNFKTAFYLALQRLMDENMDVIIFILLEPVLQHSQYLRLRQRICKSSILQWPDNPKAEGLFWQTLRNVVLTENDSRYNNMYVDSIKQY
Test: Inhibition of TL8-506-stimulated NF-κB activity (SEAP reporter, QuantiBlue) in hTLR8-HEK293 reporter cells
Format: cell-based
Design: host or cells: HEK293 (HEK-Blue hTLR8)
Settings: for inhibition at 10 µM: read-out: % inhibition at 10 µM ± SEM (NF-κB activity), 10 µM compound; for inhibition at 10 µM / IC50: TL8-506 (0.6 μM) 24 h; for inhibition at 10 µM / inhibition of NF-κB at 10 μM (in words): hTLR8-HEK293; for IC50: read-out: IC50 [μM] (95% CI) hTLR8-HEK293, inhibition of NF-κB activity, 1 h preincubation

Structure (SMILES)	inhibition at 10 µM	inhibition of NF-κB at 10 μM (in words)	IC50
Cc1noc(C)c1COc1ccc(C(=O)NCCN2CCCC2)cc1 [Compound 18, 4-((3,5-Dimethylisoxazol-4-yl)methoxy)-N-(2-(pyrrolidin-1-yl)ethyl)benzamide]	61 ± 3%	–	–
CCN1CCC(CNC(=O)c2cccc(OCc3c(C)noc3C)c2)CC1 [Compound 8]	20 ± 4%	–	–
COc1cc(C(=O)NN2CCN(C)CC2)ccc1OCc1c(C)noc1C [Compound 23, 4-((3,5-Dimethylisoxazol-4-yl)methoxy)-3-methoxy-N-(4-methylpiperazin-1-yl)benzamide]	57 ± 3%	moderate	–
COc1cc(C(=O)N2CCN(CCO)CC2)ccc1OCc1c(C)noc1C [Compound 30, (4-((3,5-Dimethylisoxazol-4-yl)methoxy)-3-methoxyphenyl)(4-(2-hydroxyethyl)piperazin-1-yl)methanone]	24 ± 9%	low inhibition	–
COc1cc(C(=O)NCCN2CCCC2)ccc1OCc1c(C)noc1C [Compound 11]	–	–	6.62 µM
Cc1noc(C)c1COc1ccc(C(=O)NC2CCN(C(C)C)CC2)cc1 [Compound 35, 4-((3,5-Dimethylisoxazol-4-yl)methoxy)-N-(1-isopropylpiperidin-4-yl)benzamide]	99 ± 0.2%	–	0.99 µM
Cc1noc(C)c1COc1cccc(C(=O)NCCN(C(C)C)C(C)C)c1 [Compound 6]	9 ± 4%	–	–
COc1cc(C(=O)NCC2CCN(C)C2)ccc1OCc1c(C)noc1C (stereo not shown) [Compound 32, 4-((3,5-Dimethylisoxazol-4-yl)methoxy)-3-methoxy-N-((1-methylpyrrolidin-3-yl)methyl)benzamide]	77 ± 5%	–	–
CCN1CCC(NC(=O)c2ccc(OCc3c(C)noc3C)c(OC)c2)C1 (stereo not shown) [Compound 29, 4-((3,5-Dimethylisoxazol-4-yl)methoxy)-N-(1-ethylpyrrolidin-3-yl)-3-methoxybenzamide]	72 ± 5%	–	–
Cc1noc(C)c1COc1ccc(C(=O)NCC2CCN(C)C2)cc1 (stereo not shown) [Compound 37, 4-((3,5-Dimethylisoxazol-4-yl)methoxy)-N-((1-methylpyrrolidin-3-yl)methyl)benzamide]	80 ± 2%	–	–
CCCN1CCC(NC(=O)c2ccc(OCc3c(C)noc3C)c(OC)c2)CC1 [Compound 31, 4-((3,5-Dimethylisoxazol-4-yl)methoxy)-3-methoxy-N-(1-propylpiperidin-4-yl)benzamide]	98 ± 0.3%	–	1.66 µM
COc1cc(C(=O)N2CCN(Cc3ccccc3)CC2)ccc1OCc1c(C)noc1C [Compound 22, (4-Benzylpiperazin-1-yl)(4-((3,5-dimethylisoxazol-4-yl)methoxy)-3-methoxyphenyl)methanone]	54 ± 3%	moderate	–
COc1cc(C(=O)NC2CCN(C(C)C)CC2)ccc1OCc1c(C)noc1C [Compound 28, 4-((3,5-Dimethylisoxazol-4-yl)methoxy)-N-(1-isopropylpiperidin-4-yl)-3-methoxybenzamide]	97 ± 1%	–	1.73 µM
Cc1noc(C)c1COc1ccc(C(=O)NN2CCN(C)CC2)cc1 [Compound 20, 4-((3,5-Dimethylisoxazol-4-yl)methoxy)-N-(4-methylpiperazin-1-yl)benzamide]	63 ± 0.7%	–	–
Cc1noc(C)c1COc1ccc(C(=O)N2CCN(CCO)CC2)cc1 [Compound 36, (4-((3,5-Dimethylisoxazol-4-yl)methoxy)phenyl)(4-(2-hydroxyethyl)piperazin-1-yl)methanone]	26 ± 2%	low inhibition	–
CCN1CCC(NC(=O)c2ccc(OCc3c(C)noc3C)cc2)CC1 [Compound 39, 4-((3,5-Dimethylisoxazol-4-yl)methoxy)-N-(1-ethylpiperidin-4-yl)benzamide]	100 ± 0.2%	–	1.1 µM
Cc1noc(C)c1COc1ccc(C(=O)NC2CCNCC2)cc1 [Compound 43, 4-((3,5-Dimethylisoxazol-4-yl)methoxy)-N-(piperidin-4-yl)benzamide]	32%	–	–
